Assay results published in ChEMBL document CHEMBL1201862, “PubChem BioAssay data set” (2004).
Where “and” joins values, the source holds several entries; their conditions need not be identical. Identical values can stand only once.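 Five compound concentrations were applied to cells in 96-well plates for 48 hours; endpoints were derived by simple linear interpolation of the resulting dose-response curve. Here, GI50 denotes the concentration required for 50% inhibition of growth.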 Calls of active or inactive are those of the source. No stated cut-off is given here; in the data, active = GI50 up to about 1.1 µM and inactive = higher.

How the values were obtained:
Assay in all cases: growth of human tumour cells (NCI), 48 h
SF-539 = test system: SF-539
HOP-62 = test system: HOP-62
U-251 = test system: U-251
RXF 393 = test system: RXF 393
SK-MEL-5 = test system: SK-MEL-5
SN12C = test system: SN12C
IGROV-1 = test system: IGROV-1
SNB-75 = test system: SNB-75
Malme-3M = test system: Malme-3M
SK-OV-3 = test system: SK-OV-3
MOLT-4 = test system: MOLT-4
KM12 = test system: KM12
A498 = test system: A498
CCRF-CEM = test system: CCRF-CEM
K562 = test system: K562
NCI-H226 = test system: NCI-H226
HCT-116 = test system: HCT-116
HCT-15 = test system: HCT-15
TK-10 = test system: TK-10
ACHN = test system: ACHN

## CCOC(=O)c1cc(C2CCN(Cc3ccccc3)C2=O)c(C(=O)C(=[N+]=[N-])C(C)=O)[nH]1 (stereo not given)
SF-539
  GI50: > 100 µM (inactive)
HOP-62
  GI50: > 100 µM (inactive)
U-251
  GI50: > 100 µM (inactive)
RXF 393
  GI50: > 100 µM (inactive)
SK-MEL-5
  GI50: > 100 µM (inactive)
SN12C
  GI50: > 100 µM (inactive)
IGROV-1
  GI50: > 100 µM (inactive)
SNB-75
  GI50: > 100 µM (inactive)
Malme-3M
  GI50: > 100 µM (inactive)
SK-OV-3
  GI50: > 100 µM (inactive)
MOLT-4
  GI50: > 100 µM (inactive)
KM12
  GI50: > 100 µM (inactive)
A498
  GI50: > 100 µM (inactive)
CCRF-CEM
  GI50: > 100 µM (inactive)
K562
  GI50: > 100 µM (inactive)
NCI-H226
  GI50: > 100 µM (inactive)
HCT-116
  GI50: > 100 µM (inactive)
HCT-15
  GI50: > 100 µM

## CC1(C)OC2OC(C(COS(=O)(=O)C(F)(F)F)N=[N+]=[N-])C(OC(=O)c3ccccc3)C2O1 (stereo not given)
TK-10
  GI50: > 100 µM (inactive)
SF-539
  GI50: > 100 µM (inactive)
HOP-62
  GI50: > 100 µM (inactive)
U-251
  GI50: > 100 µM (inactive)
RXF 393
  GI50: > 100 µM (inactive) and 59.3 µM (inactive)
SK-MEL-5
  GI50: > 100 µM (inactive)
SN12C
  GI50: > 100 µM (inactive)
SNB-75
  GI50: 53.1 µM (inactive)
Malme-3M
  GI50: > 100 µM (inactive)
SK-OV-3
  GI50: > 100 µM (inactive)
MOLT-4
  GI50: > 100 µM (inactive)
KM12
  GI50: > 100 µM (inactive)
A498
  GI50: > 100 µM (inactive)
CCRF-CEM
  GI50: > 100 µM (inactive)
K562
  GI50: > 100 µM (inactive)
ACHN
  GI50: > 100 µM (inactive)
NCI-H226
  GI50: > 100 µM (inactive)
HCT-116
  GI50: > 100 µM (inactive)
HCT-15
  GI50: > 100 µM

## Cc1cc2c(cc1-c1cc3c(cc1C)C(C(C)C)=C(O)C(=O)/C3=C\Nc1nc(-c3ccccc3)cs1)/C(=C/Nc1nc(-c3ccccc3)cs1)C(=O)C(O)=C2C(C)C
SF-539
  GI50: 18.2 µM (inactive)
HOP-62
  GI50: 15.2 µM (inactive)
U-251
  GI50: 14.4 µM (inactive)
RXF 393
  GI50: 15.3 µM (inactive)
SK-MEL-5
  GI50: 16.7 µM (inactive)
SN12C
  GI50: 22.3 µM (inactive)
IGROV-1
  GI50: 16.8 µM (inactive)
SNB-75
  GI50: 35.4 µM (inactive)
Malme-3M
  GI50: 33.8 µM (inactive)
SK-OV-3
  GI50: 21.1 µM (inactive)
MOLT-4
  GI50: 35.7 µM (inactive)
KM12
  GI50: 32.1 µM (inactive)
A498
  GI50: 35.6 µM (inactive)
CCRF-CEM
  GI50: 12.6 µM (inactive)
K562
  GI50: 11.7 µM (inactive)
ACHN
  GI50: 14.9 µM (inactive)
NCI-H226
  GI50: 22.2 µM (inactive)
HCT-116
  GI50: 8.61 µM (inactive)
HCT-15
  GI50: 25.4 µM

## CCCCCCCC(CC(=O)NC(CO)C(=O)NC(CO)CC(C)C)OC(=O)CC(CCCCCCC)OC(=O)CC(CCCCCCC)OC1OC(C)C(O)C(OC2OC(C)C(OC(C)=O)C(O)C2O)C1O (stereo not given)
TK-10
  GI50: 16.1 µM (inactive)
SF-539
  GI50: 11 µM (inactive)
HOP-62
  GI50: 17.1 µM (inactive)
U-251
  GI50: 4.41 µM (inactive)
RXF 393
  GI50: 3.76 µM (inactive)
SK-MEL-5
  GI50: 10 µM (inactive)
SN12C
  GI50: 6.49 µM (inactive)
IGROV-1
  GI50: 10.7 µM (inactive)
SNB-75
  GI50: 4.59 µM (inactive)
Malme-3M
  GI50: 10.6 µM (inactive)
SK-OV-3
  GI50: 16.3 µM (inactive)
MOLT-4
  GI50: 2.38 µM (inactive)
KM12
  GI50: 3.55 µM (inactive)
A498
  GI50: 11.3 µM (inactive)
CCRF-CEM
  GI50: 3.7 µM (inactive)
K562
  GI50: 4.61 µM (inactive)
ACHN
  GI50: 15.7 µM (inactive)
NCI-H226
  GI50: 16.6 µM (inactive)
HCT-116
  GI50: 4.84 µM (inactive)

## O=C(CC1(O)C(=O)Nc2ccc([N+](=O)[O-])cc21)c1ccncc1 (stereo not given)
TK-10
  GI50: > 100 µM (inactive)
SF-539
  GI50: 51.3 µM (inactive)
HOP-62
  GI50: > 100 µM (inactive)
U-251
  GI50: 20.1 µM (inactive)
RXF 393
  GI50: 14.8 µM (inactive)
SN12C
  GI50: 43.6 µM (inactive)
SNB-75
  GI50: 26.1 µM (inactive)
Malme-3M
  GI50: 21.8 µM (inactive)
SK-OV-3
  GI50: > 100 µM (inactive)
MOLT-4
  GI50: 24.2 µM (inactive)
KM12
  GI50: 39 µM (inactive)
A498
  GI50: > 100 µM (inactive)
CCRF-CEM
  GI50: 29 µM (inactive)
K562
  GI50: 20.5 µM (inactive)
ACHN
  GI50: 43.3 µM (inactive)
NCI-H226
  GI50: 83 µM (inactive)
HCT-116
  GI50: 30.8 µM (inactive)
HCT-15
  GI50: 83.8 µM

## CC(c1ccccc1)C(O)S(=O)(=O)O (stereo not given)
TK-10
  GI50: > 100 µM (inactive)
SF-539
  GI50: > 100 µM (inactive)
U-251
  GI50: > 100 µM (inactive)
RXF 393
  GI50: > 100 µM (inactive)
SN12C
  GI50: > 100 µM (inactive)
IGROV-1
  GI50: > 100 µM (inactive)
SNB-75
  GI50: 43.7 µM (inactive)
Malme-3M
  GI50: > 100 µM (inactive)
SK-OV-3
  GI50: > 100 µM (inactive)
MOLT-4
  GI50: > 100 µM (inactive)
KM12
  GI50: > 100 µM (inactive)
A498
  GI50: > 100 µM (inactive)
CCRF-CEM
  GI50: > 100 µM (inactive)
K562
  GI50: > 10 µM (inactive)
ACHN
  GI50: > 100 µM (inactive)
NCI-H226
  GI50: > 100 µM (inactive)
HCT-116
  GI50: > 100 µM (inactive)
HCT-15
  GI50: > 100 µM

## O[C@H]1[C@H]2[C@H](O)CCCN2C[C@H]1O [TRIDOLGOSIR]
TK-10
  GI50: > 100 µM (inactive)
SF-539
  GI50: > 100 µM (inactive)
HOP-62
  GI50: > 100 µM (inactive)
U-251
  GI50: > 100 µM (inactive)
RXF 393
  GI50: > 100 µM (inactive)
SK-MEL-5
  GI50: > 100 µM (inactive)
SN12C
  GI50: > 100 µM (inactive)
IGROV-1
  GI50: > 100 µM (inactive)
SNB-75
  GI50: > 100 µM (inactive)
Malme-3M
  GI50: > 100 µM (inactive)
SK-OV-3
  GI50: > 100 µM (inactive)
MOLT-4
  GI50: > 100 µM (inactive)
KM12
  GI50: > 100 µM (inactive)
A498
  GI50: > 100 µM (inactive)
CCRF-CEM
  GI50: 85.3 µM (inactive)
ACHN
  GI50: > 100 µM (inactive)
NCI-H226
  GI50: > 100 µM (inactive)
HCT-116
  GI50: > 100 µM (inactive)
HCT-15
  GI50: > 100 µM
